In PubChem BioAssay AID1963434 (Molecular Pharmacology Branch, DTP, NCI, 2024):
pIC50: −log10 of the molar value. Where “and” joins values, the source holds several entries; their conditions need not be identical. Equal values may be shown once.

System: 755483-174-R-J1-PDC complex spheroid growth, percent test/control
Experiment: Anticancer human tumor 755483-174-R-J1-PDC patient-derived rhabdomyosarcoma cell line growth inhibition [Asc]
Details: for viability, T/C: stronger effect = lower value
Outline: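 Stromal components (HUVEC and hMSC) are co-assembled with the cancer cells into multicellular spheroids. Drugs are then added singly or paired, at concentrations falling by half-log increments from a clinically achievable maximum, capped at 10 microM without known Cmax.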

[1] = curve of first compound, second compound 0.1 µM
[2] = curve of first compound, second compound 0.316 µM
[3] = curve of first compound, second compound 1 µM
[4] = curve of first compound, second compound 3.16 µM
[5] = curve of first compound, second compound 10 µM
[6] = second compound 0.1 µM, first compound 0.0316 µM
[7] = second compound 0.1 µM, first compound 0.1 µM
[8] = second compound 0.1 µM, first compound 0.316 µM
[9] = second compound 0.1 µM, first compound 1 µM
[10] = second compound 0.1 µM, first compound 3.16 µM
[11] = second compound 0.1 µM, first compound 10 µM
[12] = second compound 0.316 µM, first compound 0.0316 µM
[13] = second compound 0.316 µM, first compound 0.1 µM
[14] = second compound 0.316 µM, first compound 0.316 µM
[15] = second compound 0.316 µM, first compound 1 µM
[16] = second compound 0.316 µM, first compound 3.16 µM
[17] = second compound 0.316 µM, first compound 10 µM
[18] = second compound 1 µM, first compound 0.0316 µM
[19] = second compound 1 µM, first compound 0.1 µM
[20] = second compound 1 µM, first compound 0.316 µM
[21] = second compound 1 µM, first compound 1 µM
[22] = second compound 1 µM, first compound 3.16 µM
[23] = second compound 1 µM, first compound 10 µM
[24] = second compound 3.16 µM, first compound 0.0316 µM
[25] = second compound 3.16 µM, first compound 0.1 µM
[26] = second compound 3.16 µM, first compound 0.316 µM
[27] = second compound 3.16 µM, first compound 1 µM
[28] = second compound 3.16 µM, first compound 3.16 µM
[29] = second compound 3.16 µM, first compound 10 µM
[30] = second compound 10 µM, first compound 0.0316 µM
[31] = second compound 10 µM, first compound 0.1 µM
[32] = second compound 10 µM, first compound 0.316 µM
[33] = second compound 10 µM, first compound 1 µM
[34] = second compound 10 µM, first compound 3.16 µM
[35] = second compound 10 µM, first compound 10 µM
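Further: spheroids exposed to compounds for seven days before readout.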

| pIC50 [1] | pIC50 [2] | pIC50 [3] | pIC50 [4] | pIC50 [5] | Compound | viability, T/C [6] | viability, T/C [7] | viability, T/C [8] | viability, T/C [9] | viability, T/C [10] | viability, T/C [11] | viability, T/C [12] | viability, T/C [13] | viability, T/C [14] | viability, T/C [15] | viability, T/C [16] | viability, T/C [18] | viability, T/C [19] | viability, T/C [20] | viability, T/C [21] | other results |
| --- | --- | --- | --- | --- | --- | --- | --- | --- | --- | --- | --- | --- | --- | --- | --- | --- | --- | --- | --- | --- | --- |
| > 7.50 | > 7.50 | > 7.50 | > 7.50 | > 7.50 | O=C(c1cc(Cc2n[nH]c(=O)c3ccccc23)ccc1F)N1CCN(C(=O)C2CC2)CC1 + Cc1c(S(C)(=O)=O)c(-c2cc(F)cc(N3CCN(c4ccc(NS(=O)(=O)c5ccc(NC(CCN6CCC(C(=O)OCCCP(=O)(O)O)CC6)CSc6ccccc6)c(S(=O)(=O)C(F)(F)F)c5)cc4)CC3)c2)c(-c2ccc(Cl)cc2)n1C(C)C | 40.4% | 35.8% | 53% | 47.3% | 25.8% | 14.7% | 39.7% | 32.4% | 28.6% | 25.4% | 23.5% | 32.6% | 38.9% | 24.2% | 31.6% | viability, T/C [17]: 12.2%; viability, T/C [22]: 20.4%; viability, T/C [23]: 12.7%; viability, T/C [24]: 31%; viability, T/C [25]: 32.7%; viability, T/C [26]: 22.9%; viability, T/C [27]: 17.6%; viability, T/C [28]: 14.7%; viability, T/C [29]: 8.75%; viability, T/C [30]: 20.1%; viability, T/C [31]: 30.2%; viability, T/C [32]: 24.1%; viability, T/C [33]: 33.2%; viability, T/C [34]: 20.3%; viability, T/C [35]: 9.59% |
| > 8.50 | > 8.50 | > 8.50 |  |  | O=C(c1ccc(F)c(F)c1Nc1ccc(I)cc1F)N1CC(O)([C@@H]2CCCCN2)C1 + CNC(C)C(=O)NC1CN(S(=O)(=O)c2cccc(S(=O)(=O)N3CCC4CCC(C(=O)NC(c5ccccc5)c5ccccc5)N4C(=O)C(NC(=O)C(C)NC)C3)c2)CCC2CCC(C(=O)NC(c3ccccc3)c3ccccc3)N2C1=O | 38.6% | 40.3% | 23.1% | 8.23% |  |  | 56% | 31.4% | 20.5% | 11.3% |  | 25.8% | 30.4% | 17.1% | 4.97% | pIC50 (curve of first compound, second compound 0.01 µM): 7.03; pIC50 (curve of first compound, second compound 0.0316 µM): 7.56; viability, T/C (second compound 0.01 µM, first compound 0.00316 µM): 49.5%; viability, T/C (second compound 0.01 µM, first compound 0.01 µM): 56.7%; viability, T/C (second compound 0.01 µM, first compound 0.0316 µM): 51.5%; viability, T/C (second compound 0.01 µM, first compound 0.1 µM): 49.9%; viability, T/C (second compound 0.01 µM, first compound 0.316 µM): 29.4%; viability, T/C (second compound 0.01 µM, first compound 1 µM): 23.4%; viability, T/C (second compound 0.0316 µM, first compound 0.00316 µM): 56.5%; viability, T/C (second compound 0.0316 µM, first compound 0.01 µM): 62.9%; viability, T/C (second compound 0.0316 µM, first compound 0.0316 µM): 36.2%; viability, T/C (second compound 0.0316 µM, first compound 0.1 µM): 47.8%; viability, T/C (second compound 0.0316 µM, first compound 0.316 µM): 41.7%; viability, T/C (second compound 0.0316 µM, first compound 1 µM): 25.1%; viability, T/C (second compound 0.1 µM, first compound 0.00316 µM): 38.5%; viability, T/C (second compound 0.1 µM, first compound 0.01 µM): 44.7%; viability, T/C (second compound 0.316 µM, first compound 0.00316 µM): 35%; viability, T/C (second compound 0.316 µM, first compound 0.01 µM): 25.6%; viability, T/C (second compound 1 µM, first compound 0.00316 µM): 23.6%; viability, T/C (second compound 1 µM, first compound 0.01 µM): 24.4% |
|  |  |  |  |  | C=C(F)C(=O)N1CCN(c2nc(OCC3CCCN3C)nc3c2CCN(c2cccc4cccc(Cl)c24)C3)CC1CC#N (configuration not stated) |  |  |  |  |  |  |  |  |  |  |  |  |  |  |  | viability, T/C (compound 0.0316 µM): 95.7% and 76.6% and 114%; viability, T/C (compound 0.1 µM): 91% and 57% and 109%; viability, T/C (compound 0.316 µM): 95% and 99.3% and 78.9%; viability, T/C (compound 1 µM): 80.1% and 74.6% and 88.8%; viability, T/C (compound 3.16 µM): 21.4% and 23.7% and 19.3%; viability, T/C (compound 10 µM): 0.14% and 0.16% and 0.18%; pIC50 (curve of compound): 5.74 and 5.75 and 5.73 |
| 6.63 | > 7.50 | > 7.50 | > 7.50 | > 7.50 | C=C(F)C(=O)N1CCN(c2nc(OCC3CCCN3C)nc3c2CCN(c2cccc4cccc(Cl)c24)C3)CC1CC#N (configuration not stated) + Cc1c(S(C)(=O)=O)c(-c2cc(F)cc(N3CCN(c4ccc(NS(=O)(=O)c5ccc(NC(CCN6CCC(C(=O)OCCCP(=O)(O)O)CC6)CSc6ccccc6)c(S(=O)(=O)C(F)(F)F)c5)cc4)CC3)c2)c(-c2ccc(Cl)cc2)n1C(C)C | 46.4% | 58.9% | 49.7% | 30.2% | 8.51% | 0.1% | 39.3% | 48.7% | 39.4% | 33.4% | 10.8% | 40.9% | 37.9% | 32% | 20.3% | viability, T/C [17]: 0.52%; viability, T/C [22]: 5.1%; viability, T/C [23]: 1.75%; viability, T/C [24]: 35%; viability, T/C [25]: 27%; viability, T/C [26]: 30.6%; viability, T/C [27]: 16.5%; viability, T/C [28]: 8.95%; viability, T/C [29]: 0.11%; viability, T/C [30]: 42.9%; viability, T/C [31]: 41.7%; viability, T/C [32]: 34%; viability, T/C [33]: 20.6%; viability, T/C [34]: 11.8%; viability, T/C [35]: 0.16% |
| 5.92 | 5.89 | > 7.50 | > 7.50 | > 7.50 | C#Cc1c(F)ccc2cc(O)cc(-c3ncc4c(N5CC6CCC(C5)N6)nc(OCC56CCCN5CC(F)C6)nc4c3F)c12 (configuration not stated) + Cc1c(S(C)(=O)=O)c(-c2cc(F)cc(N3CCN(c4ccc(NS(=O)(=O)c5ccc(NC(CCN6CCC(C(=O)OCCCP(=O)(O)O)CC6)CSc6ccccc6)c(S(=O)(=O)C(F)(F)F)c5)cc4)CC3)c2)c(-c2ccc(Cl)cc2)n1C(C)C | 60.1% | 65.8% | 67.2% | 47.9% | 36.6% | 12.6% | 49% | 63.5% | 47.6% | 55.4% | 35.8% | 44.9% | 49.5% | 39.1% | 39.1% | viability, T/C [17]: 10.3%; viability, T/C [22]: 27.3%; viability, T/C [23]: 5.81%; viability, T/C [24]: 42.3%; viability, T/C [25]: 36.8%; viability, T/C [26]: 41.5%; viability, T/C [27]: 33.6%; viability, T/C [28]: 23.8%; viability, T/C [29]: 4.86%; viability, T/C [30]: 37.9%; viability, T/C [31]: 35.3%; viability, T/C [32]: 45.4%; viability, T/C [33]: 35.9%; viability, T/C [34]: 20.8%; viability, T/C [35]: 17.5% |
